Results reported in PMC6515058 (International Journal of Molecular Sciences, 2019).
Where two headings read alike, the source gives them in different places.

Tests used:
[1] = test system: chicken P-gp; assay: Bidirectional transport of Rho123 across MDCK-chAbcb1 cell monolayer (P-gp inhibition); format: cell-based; settings: for Papp A→B at 80 min, 4 mM: read-out: Papp AP→BL of Rho123
Experimental: (§1) The MDCK-chAbcb1 cell line stably expressing chicken P-gp was previously established in our laboratory. Briefly, the full-length chicken cDNA was first cloned into the pcDNA3.1 vector and then transfected into MDCK cells using Lipofectamine 2000. Single cells stably expressing chicken P-gp were collected using the limited dilution method in medium containing hygromycin B (100 μg/mL) to obtain the MDCK-chAbcb1 cell line. The cell line was cultured in Dulbecco’s modified Eagle’s medium containing 10% fetal bovine serum, antibiotics (100 IU/mL penicillin and 80 IU/mL streptomycin), and 50 μg/mL hygromycin B and incubated at 37 °C in humidified air with 5% CO2.
The samples were collected at 20, 40, 60, and 80 min from the receiving sides and analyzed by HPLC.
(§2) In the third equation, A is the membrane surface area of the filter, C0 is the initial concentration of the test drug, dQ is the amount of transported drug, and dt is the time elapsed. In the fourth equation, Papp B→A and Papp A→B are the apparent permeability coefficients for the basolateral-to-apical and apical-to-basolateral directions, respectively.
The inhibition rate was calculated using the following equation:(5) Inhibition rate=ERcontrol−ERtreatment/ERcontrol

[2] = test system: chicken intestinal P-gp; assay: In situ single-pass intestinal perfusion of Rho123 in berberine-treated broilers; format: in vivo
Experimental: (§3) Arbor Acres broilers (one day old) were purchased from the Liuhe Hatchery (Nanjing, Jiangsu, China). The broilers were provided a basal diet and water ad libitum and managed under the recommended humidity and temperature for 6 weeks. Then, 18 healthy broilers with similar body weight (b.w.) were randomly divided into three groups (6 broilers/group). Group I was administered phosphate-buffered saline for 24 h (control).
The broilers were divided into three experimental groups and drugs were administered as described above. Broilers were fasted for 12 h with free access to water before the perfusion experiment. Then, the animals were anesthetized with urethane intraperitoneally (0.5 mL/kg b.w.) and an incision was made through the abdominal cavity. A 10-cm intestinal segment was carefully exposed to air for intestinal perfusion. Two polyethylene cannulas were inserted through small slits at the proximal and distal ends (inlet and outlet). Initially, the intestinal segment was gently flushed with Krebs-Ringer buffer for about 30 min until a clear effluent flowed out. Then, Rho123 (1.5 ng/mL) solution was introduced into the loop at a constant flow rate of 0.2 mL/min. The intestinal fluid was collected in bottles at the outlet of the intestine at intervals of 10 min for up to 100 min. The lengths and internal radii of the intestinal segments were measured after all of the chickens were killed by cervical dislocation.
All samples were weighed and centrifuged for 10 min at 4500 rpm. The supernatants were filtered using a 0.22-μm filter (Millipore, Burlington, MA, USA) and samples were collected for analysis by high-performance liquid chromatography (HPLC).

[3] = test system: chicken P-gp; assay: in vitro; settings: for efflux ratio at 20 μM: chicken
Experimental: as §1
Then, the samples collected from the receiving sides were subjected to an HPLC analysis. Of note, the transport periods for all of the drugs were determined by a preliminary experiment to avoid the saturation of P-gp.
The apparent permeability coefficients (Papp) and the efflux ratio (ER) were calculated as follows:(3) Papp=dQ/dt×1/(A×Co) (4) ER=Papp(B→A)/Papp(A→B)
as §2

[4] = set-up: method as in data published in a Chinese journal, Figure S3; settings: broilers, berberine co-administration; ref data published in a Chinese journal, Figure S3; cited from earlier work
[5] = test system: Abcb1 mRNA; assay: Abcb1 mRNA expression in the ileum of broilers by real-time RT-PCR after oral berberine; format: in vivo; settings: berberine 40 and 80 mg/kg, 24 h, vs control, p < 0.01
Experimental: as §3
GAPDH was used as an internal control.

[6] = test system: chicken P-gp; assay: Bidirectional transport of berberine across MDCK-chAbcb1 cell monolayer; format: in vitro ADME; settings: for efflux ratio at 4 h, 100 μM: chicken
[7] = Bidirectional transport of berberine across MDCK parental cell monolayer; format: in vitro ADME; settings: dog
[8] = test system: chicken xenobiotic receptor (CXR) mRNA; assay: CXR mRNA expression in the ileum of broilers by real-time RT-PCR after oral berberine; format: in vivo; settings: berberine 40 and 80 mg/kg, 24 h, vs control, p < 0.01
Experimental: Arbor Acres broilers (one day old) were purchased from the Liuhe Hatchery (Nanjing, Jiangsu, China). The broilers were provided a basal diet and water ad libitum and managed under the recommended humidity and temperature for 6 weeks. Then, 18 healthy broilers with similar body weight (b.w.) were randomly divided into three groups (6 broilers/group). Group I was administered phosphate-buffered saline for 24 h (control). […] Chicken treatment procedures were approved by the Science and Technology Agency of Jiangsu Province (approval no. 2017-0007, approval date: 15th, February, 2017) and performed in accordance with the guidelines of the Science and Technology Agency of Jiangsu Province and Nanjing Agricultural University. Broilers were divided into three experimental groups and drugs were administered as described above. At the end of experiments, animals were killed by decapitation. The ileum samples were collected immediately and stored at −80 °C for further tests. […] RNAs were quantified using a photometer (Eppendorf, Hamburg, Germany) at 260/280 nm. […] Chicken Abcb1 and chicken xenobiotic receptor (CXR) mRNAs were quantified using SYBR Green Realtime PCR Master Mix (Toyobo, Japan) on a real-time PCR detection system (Bio-Rad Laboratories, Hercules, CA, USA). […] Relative levels of Abcb1 and CXR were analyzed using the 2^−ΔΔCt method.

[9] = chicken, control of 8 h series, no berberine

## COC(=O)c1ccccc1-c1c2ccc(=N)cc-2oc2cc(N)ccc12 [Rho123, rhodamine 123]
[1]; chicken, control of 2 h series, no berberine, read-out: Efflux ratio of Rho123
  efflux ratio at 2 h, 4 mM: 7.28 ± 0.98
[1]; chicken, control of 2 h series, no berberine
  Papp A→B at 80 min, 4 mM: 8.86 ± 1.38 ×10⁻⁶ cm/s
[1]; chicken, control of 2 h series, no berberine, read-out: Papp BL→AP of Rho123
  Papp B→A at 2 h, 4 mM: 62.9 ± 7.69 ×10⁻⁶ cm/s
[1]; [9]
  efflux ratio at 8 h, 4 mM: 7.24 ± 0.49
  Papp A→B at 80 min, 4 mM: 8.62 ± 1.24 ×10⁻⁶ cm/s
[1]; chicken, control of 8 h series, no berberine, read-out: Papp BL→AP of Rho123
  Papp B→A at 8 h, 4 mM: 60.1 ± 5.13 ×10⁻⁶ cm/s
[1]; chicken, control of verapamil series, verapamil 0 µM, read-out: Efflux Ratio of rhodamine 123
  efflux ratio at 2 h, 4 mM: 6.24 ± 0.7
[1]; chicken, control of verapamil series, verapamil 0 µM, read-out: Papp AP→BL of rhodamine 123
  Papp A→B at 2 h, 4 mM: 8.04 ± 0.76 ×10⁻⁶ cm/s
[1]; chicken, control of verapamil series, verapamil 0 µM, read-out: Papp BL→AP of rhodamine 123
  Papp B→A at 2 h, 4 mM: 54.4 ± 4.34 ×10⁻⁶ cm/s
[2]; Arbor Acres, chicken, other: in situ single-pass intestinal perfusion
  Papp at 100 min, 1.5 ng/mL: 123 ± 42 ×10⁻⁶ cm/s
[2]; control (no berberine), in situ perfusion, n = 6
  Ka of Rho123: 1.12 ± 0.28 min⁻¹

## CC[C@H]1OC(=O)C[C@@H](O)[C@H](C)[C@@H](O[C@@H]2O[C@H](C)[C@@H](O)[C@H](N(C)C)[C@H]2O)[C@@H](CCN2C[C@H](C)C[C@H](C)C2)C[C@@H](C)C(=O)/C=C/C(C)=C/[C@@H]1CO[C@@H]1O[C@H](C)[C@@H](O)[C@@H](OC)[C@H]1OC [tilmicosin]
[3]
  efflux ratio at 20 μM: 4.26

## Nc1ccc(S(=O)(=O)Nc2ncccn2)cc1 [sulfadiazine]
[3]
  efflux ratio at 20 μM: 2.77

## COc1ccc2cc3[n+](cc2c1OC)CCc1cc2c(cc1-3)OCO2 [berberine]
[1]; berberine 5 μM, 2 h
  Inhibition rate (of Rho123 efflux ratio): 41.48%
[1]; berberine 5 μM, 8 h
  Inhibition rate (of Rho123 efflux ratio): 39.64%
[1]; berberine 20 μM, 2 h
  Inhibition rate (of Rho123 efflux ratio): 53.3%
[1]; berberine 20 μM, 2 h, listed as Berberine
  Inhibition rate (of Rho123 efflux ratio): 53.30%
[1]; berberine 20 μM, 8 h
  Inhibition rate (of Rho123 efflux ratio): 62.57%
[1]; berberine 40 μM, 2 h
  Inhibition rate (of Rho123 efflux ratio): 73.6%
[1]; berberine 40 μM, 2 h, listed as Berberine
  Inhibition rate (of Rho123 efflux ratio): 73.63%
[1]; berberine 40 μM, 8 h
  Inhibition rate (of Rho123 efflux ratio): 68.23%
[4]
  Bioavailability of orally administered enrofloxacin: increases the bioavailability
[5]
  Abcb1 mRNA level in the ileum: significantly down-regulated
[2]; berberine 40 and 80 mg/kg, 24 h, vs control, p < 0.05
  Rho123 concentrations in the perfusion fluid: obvious decrease
[3]; berberine 20 μM, 2 h pre-incubation, sulfadiazine 20 μM
  ER of sulfadiazine: did not obviously alter the ER
[6]; MDCK-chAbcb1 cells, without verapamil, berberine 100 μM, 4 h
  Transport ratio (r) of berberine: 4.2
[6]
  efflux ratio at 4 h, 100 μM: 4.2
[6]; with verapamil 100 μM
  efflux ratio at 4 h, 100 μM: 1.13
[7]
  efflux ratio at 4 h, 100 μM: 1.24
[7]; with verapamil 100 μM
  efflux ratio at 4 h, 100 μM: 1.21
[8]
  CXR mRNA level in the ileum: significantly down-regulated

## CCN1CCN(c2cc3c(cc2F)c(=O)c(C(=O)O)cn3C2CC2)CC1 [enrofloxacin]
[3]
  efflux ratio at 20 μM: 2.01
